Experimental data from ChEMBL document CHEMBL4602639, “A novel series of 11-O-carbamoyl-3-O-descladinosyl clarithromycin derivatives bearing 1,2,3-triazole group: Design, synthesis and antibacterial evaluation” (2020).
In brackets after ≈: the same amount, converted by molar mass.

What was measured:
Assay type in all cases: functional
[1] = test system: Staphylococcus aureus; assay: Antibacterial activity against erythromycin-susceptible Staphylococcus aureus ATCC 25923 by standard broth microdilution method
[2] = test system: Escherichia coli; assay: Antibacterial activity against penicillin-susceptible Escherichia coli ATCC 25922 by standard broth microdilution method
[3] = test system: Bacillus subtilis; assay: Antibacterial activity against penicillin-susceptible Bacillus subtilis ATCC 9372 by standard broth microdilution method
[4] = test system: Pseudomonas aeruginosa; assay: Antibacterial activity against penicillin-susceptible Pseudomonas aeruginosa ATCC 27853 by standard broth microdilution method
[5] = test system: Streptococcus pneumoniae; assay: Antibacterial activity against erythromycin-resistant Streptococcus pneumoniae AB11 expressing ermB and me/A genes by standard broth microdilution method
[6] = test system: Streptococcus pneumoniae; assay: Antibacterial activity against erythromycin-resistant Streptococcus pneumoniae B1 expressing ermB gene by standard broth microdilution method
[7] = test system: Streptococcus pyogenes; assay: Antibacterial activity against erythromycin resistant Streptococcus pyogenes R1 by standard broth microdilution method
[8] = test system: Staphylococcus aureus; assay: Antibacterial activity against methicillin-resistant Staphylococcus aureus ATCC 43300 by standard broth microdilution method
[9] = test system: Streptococcus pyogenes; assay: Potency index, ratio of MIC of CAM to MIC of compound for antibacterial activity against erythromycin resistant Streptococcus pyogenes R1
[10] = test system: Streptococcus pyogenes; assay: Potency index, ratio of MIC of AZM to MIC of compound for antibacterial activity against erythromycin resistant Streptococcus pyogenes R1

| Compound | MIC [1] [µg/mL] | MIC [2] [µg/mL] | MIC [3] [µg/mL] | MIC [4] [µg/mL] | MIC [5] [µg/mL] | MIC [6] [µg/mL] | MIC [7] [µg/mL] | MIC [8] [µg/mL] | Ratio [9] | Ratio [10] |
| --- | --- | --- | --- | --- | --- | --- | --- | --- | --- | --- |
| CC[C@H]1OC(=O)[C@H](C)C(=O)[C@H](C)[C@@H](O[C@H]2O[C@@H](C)C[C@@H](N(C)C)[C@@H]2O)[C@](C)(OC)C[C@@H](C)C(=O)[C@H](C)[C@@H](OC(=O)NCCn2cc(-c3cccc(N)c3)nn2)[C@]1(C)O | 32 (≈ 39.2 µM) | > 128 | 32 (≈ 39.2 µM) | 128 (≈ 157 µM) | 256 (≈ 313 µM) | > 256 | 256 (≈ 313 µM) | > 256 |  |  |
| CCCc1ccc(-c2cn(CCNC(=O)O[C@@H]3[C@@H](C)C(=O)[C@H](C)C[C@@](C)(OC)[C@H](O[C@H]4O[C@@H](C)C[C@@H](N(C)C)[C@@H]4O)[C@@H](C)C(=O)[C@@H](C)C(=O)O[C@H](CC)[C@@]3(C)O)nn2)cc1 | 32 (≈ 37.9 µM) | > 128 | 8 (≈ 9.48 µM) | 128 (≈ 152 µM) | 128 (≈ 152 µM) | 256 (≈ 303 µM) | 64 (≈ 75.8 µM) | 256 (≈ 303 µM) |  |  |
| CC[C@H]1OC(=O)[C@H](C)C(=O)[C@H](C)[C@@H](O[C@H]2O[C@@H](C)C[C@@H](N(C)C)[C@@H]2O)[C@](C)(OC)C[C@@H](C)C(=O)[C@H](C)[C@@H](OC(=O)NCCn2cc(-c3cccc(C)c3)nn2)[C@]1(C)O | 32 (≈ 39.2 µM) | > 128 | 8 (≈ 9.8 µM) | 128 (≈ 157 µM) | 256 (≈ 314 µM) | > 256 | 256 (≈ 314 µM) | > 256 |  |  |
| CC[C@H]1OC(=O)[C@H](C)C(=O)[C@H](C)[C@@H](O[C@H]2O[C@@H](C)C[C@@H](N(C)C)[C@@H]2O)[C@](C)(OC)C[C@@H](C)C(=O)[C@H](C)[C@@H](OC(=O)NCCn2cc(-c3ccccc3Cl)nn2)[C@]1(C)O | 8 (≈ 9.56 µM) | > 128 | 4 (≈ 4.78 µM) | 128 (≈ 153 µM) | 128 (≈ 153 µM) | 128 (≈ 153 µM) | 64 (≈ 76.5 µM) | 256 (≈ 306 µM) |  |  |
| CC[C@H]1OC(=O)[C@H](C)C(=O)[C@H](C)[C@@H](O[C@H]2O[C@@H](C)C[C@@H](N(C)C)[C@@H]2O)[C@](C)(OC)C[C@@H](C)C(=O)[C@H](C)[C@@H](OC(=O)NCCCn2cc(-c3ccc(C(C)(C)C)cc3)nn2)[C@]1(C)O | 16 (≈ 18.3 µM) | > 128 | 16 (≈ 18.3 µM) | 128 (≈ 147 µM) | 64 (≈ 73.4 µM) | 64 (≈ 73.4 µM) | 32 (≈ 36.7 µM) | 128 (≈ 147 µM) | 8 - 16 | 8 - 16 |
| CC[C@H]1OC(=O)[C@H](C)C(=O)[C@H](C)[C@@H](O[C@H]2O[C@@H](C)C[C@@H](N(C)C)[C@@H]2O)[C@](C)(OC)C[C@@H](C)C(=O)[C@H](C)[C@@H](OC(=O)NCCn2cc(-c3cccc([N+](=O)[O-])c3)nn2)[C@]1(C)O | 8 (≈ 9.45 µM) | > 128 | 4 (≈ 4.72 µM) | 128 (≈ 151 µM) | 128 (≈ 151 µM) | 256 (≈ 302 µM) | 64 (≈ 75.6 µM) | > 256 |  |  |
| CC[C@H]1OC(=O)[C@H](C)C(=O)[C@H](C)[C@@H](O[C@H]2O[C@@H](C)C[C@@H](N(C)C)[C@@H]2O)[C@](C)(OC)C[C@@H](C)C(=O)[C@H](C)[C@@H](OC(=O)NCCn2cc(-c3ccc(C(C)(C)C)cc3)nn2)[C@]1(C)O | 32 (≈ 37.3 µM) | > 128 | 8 (≈ 9.32 µM) | 128 (≈ 149 µM) | 128 (≈ 149 µM) | 128 (≈ 149 µM) | 64 (≈ 74.6 µM) | 256 (≈ 298 µM) |  |  |
| CC[C@H]1OC(=O)[C@H](C)C(=O)[C@H](C)[C@@H](O[C@H]2O[C@@H](C)C[C@@H](N(C)C)[C@@H]2O)[C@](C)(OC)C[C@@H](C)C(=O)[C@H](C)[C@@H](OC(=O)NCCn2cc(-c3ccc(F)cc3)nn2)[C@]1(C)O | 16 (≈ 19.5 µM) | > 128 | 4 (≈ 4.88 µM) | 128 (≈ 156 µM) | 128 (≈ 156 µM) | 256 (≈ 312 µM) | 64 (≈ 78.1 µM) | > 256 |  |  |
| CC[C@H]1OC(=O)[C@H](C)C(=O)[C@H](C)[C@@H](O[C@H]2O[C@@H](C)C[C@@H](N(C)C)[C@@H]2O)[C@](C)(OC)C[C@@H](C)C(=O)[C@H](C)[C@@H](OC(=O)NCCn2cc(-c3ccc(OC)cc3)nn2)[C@]1(C)O | 16 (≈ 19.2 µM) | > 128 | 4 (≈ 4.81 µM) | 128 (≈ 154 µM) | 256 (≈ 308 µM) | > 256 | 256 (≈ 308 µM) | > 256 |  |  |
| CC[C@H]1OC(=O)[C@H](C)C(=O)[C@H](C)[C@@H](O[C@H]2O[C@@H](C)C[C@@H](N(C)C)[C@@H]2O)[C@](C)(OC)C[C@@H](C)C(=O)[C@H](C)[C@@H](OC(=O)NCCCn2cc(-c3ccccc3)nn2)[C@]1(C)O | 8 (≈ 9.8 µM) | > 128 | 8 (≈ 9.8 µM) | 128 (≈ 157 µM) | 64 (≈ 78.4 µM) | 128 (≈ 157 µM) | 64 (≈ 78.4 µM) | 256 (≈ 314 µM) |  |  |
